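1) Cells in 96-well plates. 2) Compound, 48 h, 5 concentrations. 3) Linear interpolation between surrounding doses. 4) Unreached endpoint = highest concentration. Abbreviation: GI50, concentration required for 50% inhibition of growth.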 Active and inactive are the calls of the source. No stated cut-off is given here; in the data, active = GI50 up to about 1.1 µM and inactive = higher.

Assay in all cases: growth of human tumour cells (NCI), 48 h
Experiment [1] has as its system 786-0.
In experiment [2] the test system is BT-549.
The subject of experiment [3] is DLD-1.
For experiment [4], the system named is DMS-114.
In experiment [5] the test system is DMS-273.
Experiment [6] concerns XF498.
The subject of experiment [7] is KM-20L2.
Experiment [8] deals with LXFL 529.

On to `NNc1nc2ccccc2s1`, for which the GI50 in experiment [1] and in experiment [2] was > 100 µM (inactive) throughout.

For `CC1CC(Br)C(=O)O1` (stereo not given), the GI50 in experiment [2] was > 100 µM (inactive).

Turning to `CCc1cc(=O)n(/C(C)=C/c2ccccc2)n1C`, the GI50 in experiment [2] was > 100 µM (inactive).

For the molecule `CCOC(=O)C(C)N1C(=O)c2ccccc2S1(=O)=O` (stereo not given), the GI50 in experiment [3], in experiment [4], in experiment [5] and in experiment [6] was > 100 µM (inactive) in each case.

On to `Cc1c2cnccc2c(C)c2c1c1ccccc1n2CCCCCCCl`, for which the GI50 in experiment [3] is > 50 µM (inactive); in experiment [4], > 40.3 µM (inactive); in experiment [5] it was > 39.8 µM (inactive); in experiment [7] it was 25.1 µM (inactive); in experiment [6], 33 µM (inactive).

In the case of `C#CC(C)(C)Oc1cc(OC)c2c(=O)c3ccccc3n(C)c2c1`, the GI50 in experiment [1] is 7.46 µM (inactive).

As for `CN(C)C(=O)OC1C(=O)N(C)c2ccc(Cl)cc2C2(c3ccccc3)N1C2(Cl)Cl` (stereo not given), the GI50 was 55.1 µM (inactive) in experiment [3], 72.4 µM (inactive) in experiment [5], 40 µM (inactive) in experiment [7] and > 100 µM (inactive) in experiment [8].

With `CCNc1nnc(-c2nsc3ccccc23)s1`, the GI50 was 27.7 µM (inactive) in experiment [5], 55.3 µM (inactive) in experiment [7] and 94.2 µM (inactive) in experiment [8].

Regarding `CCCCCCCC/C=C\CCCCCCCCCCCC(=O)O` [ERUCIC ACID], the GI50 in experiment [3] is 42.4 µM (inactive); in experiment [5] it was 22.2 µM (inactive); in experiment [7] it was 38.3 µM (inactive); in experiment [6], 1.48 µM (inactive).

The values are drawn from ChEMBL document CHEMBL1201862, “PubChem BioAssay data set” (2004).
